Laboratory results reported in patent US20100234390A1, “NOVEL COMPOUND AND THEIR USE” (priority 2007, published 2010).
Values after ≈ are worked out from the molar mass of the structure shown. One block for each molecule: values may come before it.

Experiments:
Assay in all cases: Agar dilution MIC
Conditions in all cases: 16-20 hours
[1] = test system: E. faecalis MRO 04035; format: cell-based, Enterococcus faecalis
Procedure: (§1) Briefly, the compounds of invention were weighed, dissolved in dimethyl sulfoxide, serially two fold diluted in the same solvent and then incorporated into molten Mueller Hinton Agar (MHA) in a petridish just before solidification, with each petridish containing a different concentration of a compound.
(§2) The bacterial inoculum was prepared by picking 3 to 5 well isolated bacterial colonies with the same morphological appearance from an 18-24 hours old culture with an inoculating loop, transferring the growth to a tube containing 3 mL of normal saline and adjusting the turbidity of the saline suspension to 0.5 Mc Farland Turbidity Standard equivalent to a bacterial population of 1.5×10^8 colony forming units (CFU) per mL of suspension. The suspension was diluted 1:10 in saline (i.e. 0.5 mL suspension 4.5 mL saline) to get a bacterial population of 1.5×10^7 CFU/mL as inoculum.
(§3) The inoculated petridishes were incubated at 35° C. in an ambient atmosphere for 16-20 hours.

[2] = test system: E. faecalis MRO 04205; format: cell-based, Enterococcus faecalis
Procedure: as §1, §2, §3

[3] = test system: E. faecalis ATCC 29212; format: cell-based, Enterococcus faecalis
Procedure: as §1, §2, §3

[4] = test system: E. faecalis ATCC 51299; format: cell-based, Enterococcus faecalis
Procedure: as §1, §2, §3

[5] = test system: E. faecalis MRO 04050; format: cell-based, Enterococcus faecalis
Procedure: as §1, §2, §3

[6] = test system: E. faecium MRO 04198; format: cell-based, Enterococcus faecium
Procedure: as §1, §2, §3

[7] = test system: E. faecium MRO 04037; format: cell-based, Enterococcus faecium
Procedure: as §1, §2, §3

[8] = test system: E. faecium ATCC 700221; format: cell-based, Enterococcus faecium
Procedure: as §1, §2, §3

[9] = test system: E. faecium MRO 04038; format: cell-based, Enterococcus faecium
Procedure: as §1, §2, §3

[10] = test system: S. epidermidis MRO 02002; format: cell-based
Procedure: as §1, §2, §3

[11] = test system: S. epidermidis MRO 02095; format: cell-based
Procedure: as §1, §2, §3

[12] = test system: S. saprophyticus MRO 02003; format: cell-based
Procedure: as §1, §2, §3

[13] = test system: S. epidermidis MRO 002046; format: cell-based
Procedure: as §1, §2, §3

[14] = test system: S. epidermidis MRO 02045; format: cell-based
Procedure: as §1, §2, §3

[15] = test system: S. haemolyticus MRO 02064; format: cell-based
Procedure: as §1, §2, §3

[16] = test system: M. catarrhalis ATCC 43627; format: cell-based, Moraxella catarrhalis
Procedure: as §1, §2, §3

[17] = test system: M. catarrhalis ATCC 43617; format: cell-based, Moraxella catarrhalis
Procedure: as §1, §2, §3

[18] = test system: M. catarrhalis ATCC 43628; format: cell-based, Moraxella catarrhalis
Procedure: as §1, §2, §3

[19] = test system: S. aureus MRO 0003; format: cell-based, Staphylococcus aureus
Procedure: as §1, §2, §3

[20] = test system: S. aureus MRO 00013; format: cell-based, Staphylococcus aureus
Procedure: as §1, §2, §3

[21] = test system: S. aureus MRO 00048; format: cell-based, Staphylococcus aureus
Procedure: as §1, §2, §3

[22] = test system: S. aureus MRO 002053; format: cell-based, Staphylococcus aureus
Procedure: as §1, §2, §3

[23] = test system: S. aureus MRO 0001; format: cell-based, Staphylococcus aureus
Procedure: as §1, §2, §3

[24] = test system: S. aureus MRO 00059; format: cell-based, Staphylococcus aureus
Procedure: as §1, §2, §3

[25] = test system: S. aureus MRO 00030; format: cell-based, Staphylococcus aureus
Procedure: as §1, §2, §3

[26] = test system: S. aureus ATCC 29213; format: cell-based, Staphylococcus aureus
Procedure: as §1, §2, §3

[27] = test system: S. aureus MRO 00055; format: cell-based, Staphylococcus aureus
Procedure: as §1, §2, §3

[28] = test system: S. aureus ATCC 43300; format: cell-based, Staphylococcus aureus
Procedure: as §1, §2, §3

SMILES: COC(=S)NC[C@H]1CN(c2ccc(N3CCN(C(=O)C=Cc4ccc([N+](=O)[O-])o4)CC3)c(F)c2)C(=O)O1 [Example 40, (S)—O-Methyl(3-(3-fluoro-4-(4-(3-(5-nitrofuran-2-yl)acryloyl)piperazin-1-yl)phenyl)-2-oxooxazolidin-5-yl)methylcarbamothioate]
Antimicrobial Screening (MIC) ([1]; 35° C.): 0.25 µg/mL | Antimicrobial Screening (MIC) ([2]; 35° C.): 0.25 µg/mL | Antimicrobial Screening (MIC) ([3]; 35° C.): 0.25 µg/mL | Antimicrobial Screening (MIC) ([4]; 35° C.): 0.25 µg/mL | Antimicrobial Screening (MIC) ([5]; 35° C.): 0.25 µg/mL | Antimicrobial Screening (MIC) ([6]; 35° C.): 0.25 µg/mL | Antimicrobial Screening (MIC) ([7]; 35° C.): 0.25 µg/mL | Antimicrobial Screening (MIC) ([8]; 35° C.): 0.125 µg/mL | Antimicrobial Screening (MIC) ([9]; 35° C.): 0.25 µg/mL | Antimicrobial Screening (MIC) ([10]; 35° C.): 0.125 µg/mL | Antimicrobial Screening (MIC) ([11]; 35° C.): 0.06 µg/mL | Antimicrobial Screening (MIC) ([12]; 35° C.): 0.06 µg/mL | Antimicrobial Screening (MIC) ([13]; 35° C.): <0.03 µg/mL | Antimicrobial Screening (MIC) ([14]; 35° C.): <0.03 µg/mL | Antimicrobial Screening (MIC) ([15]; 35° C.): 0.125 µg/mL | Antimicrobial Screening (MIC) ([16]; 35° C.): 0.125 µg/mL | Antimicrobial Screening (MIC) ([17]; 35° C.): 0.06 µg/mL | Antimicrobial Screening (MIC) ([18]; 35° C.): 0.125 µg/mL | Antimicrobial Screening (MIC) ([19]; 35° C.): 0.25 µg/mL | Antimicrobial Screening (MIC) ([20]; 35° C.): 0.25 µg/mL | Antimicrobial Screening (MIC) ([21]; 35° C.): 0.25 µg/mL | Antimicrobial Screening (MIC) ([22]; 35° C.): 0.06 µg/mL | Antimicrobial Screening (MIC) ([23]; 35° C.): 0.25 µg/mL | Antimicrobial Screening (MIC) ([24]; 35° C.): 0.25 µg/mL | Antimicrobial Screening (MIC) ([25]; 35° C.): 0.125 µg/mL | Antimicrobial Screening (MIC) ([26]; 35° C.): 0.25 µg/mL | Antimicrobial Screening (MIC) ([27]; 35° C.): 0.25 µg/mL | Antimicrobial Screening (MIC) ([28]; 35° C.): 0.125 µg/mL

MIC ([1]; Enterococcus faecalis, MRO04035, 35° C., read-out: Antimicrobial Screening (MIC)): 0.5 µg/mL (≈ 0.968 µM) | MIC ([2]; Enterococcus faecalis, MRO04205, 35° C., read-out: Antimicrobial Screening (MIC)): 0.5 µg/mL (≈ 0.968 µM) | MIC ([3]; Enterococcus faecalis, ATCC29212, 35° C., read-out: Antimicrobial Screening (MIC)): 0.5 µg/mL (≈ 0.968 µM) | MIC ([4]; Enterococcus faecalis, ATCC51299, 35° C., read-out: Antimicrobial Screening (MIC)): 0.5 µg/mL (≈ 0.968 µM) | MIC ([5]; Enterococcus faecalis, MRO04050, 35° C., read-out: Antimicrobial Screening (MIC)): 0.5 µg/mL (≈ 0.968 µM) | MIC ([6]; Enterococcus faecium, MRO04198, 35° C., read-out: Antimicrobial Screening (MIC)): 0.5 µg/mL (≈ 0.968 µM) | MIC ([7]; Enterococcus faecium, MRO04037, 35° C., read-out: Antimicrobial Screening (MIC)): 0.5 µg/mL (≈ 0.968 µM) | MIC ([8]; Enterococcus faecium, ATCC700221, 35° C., read-out: Antimicrobial Screening (MIC)): 0.5 µg/mL (≈ 0.968 µM) | MIC ([9]; Enterococcus faecium, MRO04038, 35° C., read-out: Antimicrobial Screening (MIC)): 0.5 µg/mL (≈ 0.968 µM) | MIC ([10]; Staphylococcus epidermidis, MRO02002, 35° C., read-out: Antimicrobial Screening (MIC)): 1 µg/mL (≈ 1.94 µM) | MIC ([11]; Staphylococcus epidermidis, MRO02095, 35° C., read-out: Antimicrobial Screening (MIC)): 1 µg/mL (≈ 1.94 µM) | MIC ([12]; Staphylococcus saprophyticus, MRO02003, 35° C., read-out: Antimicrobial Screening (MIC)): 1 µg/mL (≈ 1.94 µM) | MIC ([13]; Staphylococcus epidermidis, MRO002046, 35° C., read-out: Antimicrobial Screening (MIC)): 1 µg/mL (≈ 1.94 µM) | MIC ([14]; Staphylococcus epidermidis, MRO02045, 35° C., read-out: Antimicrobial Screening (MIC)): 1 µg/mL (≈ 1.94 µM) | MIC ([16]; Moraxella catarrhalis, ATCC43627, 35° C., read-out: Antimicrobial Screening (MIC)): 2 µg/mL (≈ 3.87 µM) | MIC ([17]; Moraxella catarrhalis, ATCC43617, 35° C., read-out: Antimicrobial Screening (MIC)): 0.5 µg/mL (≈ 0.968 µM) | MIC ([18]; Moraxella catarrhalis, ATCC43628, 35° C., read-out: Antimicrobial Screening (MIC)): 1 µg/mL (≈ 1.94 µM) | MIC ([19]; Staphylococcus aureus, MRO0003, 35° C., read-out: Antimicrobial Screening (MIC)): 1 µg/mL (≈ 1.94 µM) | MIC ([20]; Staphylococcus aureus, MRO00013, 35° C., read-out: Antimicrobial Screening (MIC)): 1 µg/mL (≈ 1.94 µM) | MIC ([21]; Staphylococcus aureus, MRO00048, 35° C., read-out: Antimicrobial Screening (MIC)): 0.5 µg/mL (≈ 0.968 µM) | MIC ([22]; Staphylococcus aureus, MRO002053, 35° C., read-out: Antimicrobial Screening (MIC)): 1 µg/mL (≈ 1.94 µM) | MIC ([23]; Staphylococcus aureus, MRO0001, 35° C., read-out: Antimicrobial Screening (MIC)): 0.5 µg/mL (≈ 0.968 µM) | MIC ([24]; Staphylococcus aureus, MRO00059, 35° C., read-out: Antimicrobial Screening (MIC)): 0.5 µg/mL (≈ 0.968 µM) | MIC ([25]; Staphylococcus aureus, MRO00030, 35° C., read-out: Antimicrobial Screening (MIC)): 1 µg/mL (≈ 1.94 µM) | MIC ([26]; Staphylococcus aureus, ATCC29213, 35° C., read-out: Antimicrobial Screening (MIC)): 1 µg/mL (≈ 1.94 µM) | MIC ([27]; Staphylococcus aureus, MRO00055, 35° C., read-out: Antimicrobial Screening (MIC)): 1 µg/mL (≈ 1.94 µM) | MIC ([28]; Staphylococcus aureus, ATCC43300, 35° C., read-out: Antimicrobial Screening (MIC)): 0.5 µg/mL (≈ 0.968 µM)
SMILES: COC(=S)NC[C@H]1CN(c2ccc(N3CCN(C(=O)COCc4ccccc4)CC3)c(F)c2)C(=O)O1 [Example 45, (S)—O-Methyl (3-(4-(4-(2-(benzyloxy)acetyl)piperazin-1-yl)-3-fluorophenyl)-2-oxooxazolidin-5-yl)methylcarbamothioate]
MIC ([15]; Staphylococcus haemolyticus, MRO02064, 35° C., read-out: Antimicrobial Screening (MIC)): 0.5 µg/mL (≈ 0.968 µM)
